Measurements reported in US6660468B1, “Vitro and in vivo models for screening compounds to prevent glucocorticoid-induced bone destruction” (Board of Trustees of the University of Arkansas, priority 1998, dated 2003).
Where “and” joins values, the source holds several entries; their conditions need not be identical. Equal entries are not always repeated.

Experiments:
Male Swiss Webster mice [1] = assay: Bone densitometry (DEXA) in prednisolone-treated mice; format: in vivo, mouse; conditions: for Global BMD (% change) / Hindquarters BMD (% change) / Spinal BMD (% change): 27 days
From the text: (§1) Bone mineral density (BMD) determinations were done at two week intervals to identify the peak adult bone mass of the mice, which was reached between 5 and 6 months-of-age (9). Animals at peak bone mass were used to avoid obscuring the negative impact of glucocorticoid excess on bone mineral density by the confounding effects of increased linear and radial growth. Before the experiment began, bone mineral density measurements were repeated to allocate the animals into groups (n=4-5) with equivalent spinal density values. […] These doses were administered for 27 days by subcutaneous implantation of slow-release pellets (Innovative Research of America, Sarasota, Fla.). Bone mineral density measurements were obtained at the beginning of the experiment and 27 days post-implantation. For dynamic histomorphometric measurements, tetracycline HCl (30 mg/kg body weight) was given intraperitoneally 17 and 23 days post-implantation. After 27 days, the mice were sacrificed, serum and urine specimens were taken, bone marrow aspirates were obtained from the right femur for ex vivo marrow cell cultures and the left femur and lumbar vertebrae were prepared for histomorphometric analysis. Livers were examined for fatty infiltration as a sign of prednisolone toxicity. The weight of the seminal vesicles (mg/100 g body weight) was used as an index of the androgen status of the animals (12). To help interpret these measurements, a separate group of animals was orchidectomized (n=5).
Dual-energy X-ray absorptiometry (DEXA) was used to determine global (whole body minus the head), spinal and hindquarters bone mineral density in live mice (7,9). The scans done at 27 days after pellet implantation were analyzed using the ‘Compare’ technique, in which the evaluation is based on the exact positioning and region of interest placement of the baseline scan. […] Over the 18 months, the coefficient of variation for the bone mineral density of a plastic-embedded whole mouse skeleton was 3.0% (n=146).

Male Swiss Webster mice [2] = assay: Serum and urine biochemical measurements (osteocalcin, deoxypyridinoline); format: in vivo, mouse; conditions: 27 days; for Osteocalcin: serum; for Deoxypyridinoline: urine
Description: as §1, with “Animals” for “Bone mineral density (BMD) determinations were done at two week intervals to identify the peak adult bone mass of the mice, which was reached between 5 and 6 months-of-age (9). Animals”
Serum osteocalcin was measured by radioimmunoassay using a goat anti-murine osteocalcin and murine osteocalcin as tracer and standard (Biomedical Technologies, Stoughton, Mass.). Urinary free deoxypyridinoline excretion was determined by a microtiter competitive enzyme immunoassay (Pyrilinks-D, Metra Biosystems, Mountain View, Calif.) and was expressed as a ratio to the urinary creatinine.

[3] = Food intake, body weight, seminal vesicle weight and hepatic fatty infiltration; format: in vivo, mouse; conditions: mice; for Seminal Vesicle Weight: index of androgen status
Description: Male Swiss Webster mice (Charles River Laboratories, Stone Ridge, N.Y.) were electronically tagged (Biomedic Data System Inc., Maywood, N.J.) and kept in plastic cages (3-5 animals per cage) under standard laboratory conditions with a 12 hr dark, 12 hr light cycle and a constant temperature of 20° C. and humidity of 48%. All mice were fed on a standard rodent diet (Agway RMH 3000, Arlington Heights, Ill.) containing 22% protein, 5% fat, 5% fiber, 6% ash, 3.5 Kcal/g, 1.0 IU vitamin D3/g, 0.97% calcium and 0.85% phosphorus with water ad libitum. The animals and food supply were weighed at one week intervals throughout the experiment. Studies were approved by the UAMS Division of Laboratory and Animal Medicine.
as §1

[4] = system: murine vertebral cancellous bone; assay: Vertebral cancellous bone histomorphometry after 27 days
Description: as §1, with “Animals” for “Bone mineral density (BMD) determinations were done at two week intervals to identify the peak adult bone mass of the mice, which was reached between 5 and 6 months-of-age (9). Animals”
(§2) The distal femora and lumbar vertebrae were fixed in 4° C. Millonig's phosphate-buffered 10% formalin, pH 7.4, embedded undecalcified in methyl methacrylate and stained (7,9,13). The histomorphometric examination was done with a computer and digitizer tablet (OsteoMetrics Inc. Version 3.00, Atlanta, Ga.) interfaced to a Zeiss Axioscope (Carl Zeiss, Inc., Thornwood, N.Y.) with a drawing tube attachment. All cancellous measurements were two-dimensional, confined to the secondary spongiosa and made at ×400 magnification (numerical aperture 0.75). The terminology and units used are those recommended by the Histomorphometry Nomenclature Committee of the American Society for Bone and Mineral Research (14). The trabecular width and osteoid width were measured directly. Trabecular spacing and number were calculated (15). Only TRAPase-positive cells were included in the osteoclast perimeter. The rate of bone formation (μm^2/μm/d) and turnover (%/d) were calculated (7).

[5] = system: CFU-F, CFU-OB and osteoclast progenitors in bone marrow cells; assay: Osteoblastogenesis and osteoclastogenesis in ex vivo bone marrow cell cultures; set-up: species or system mouse; conditions: 27 d
Description: One femur from each mouse was flushed with 5 ml of phenol red-free αMEM (Gibco BRL, Gaithersburg, Md.) containing 10% FBS (Hyclone, Logan, Utah) to obtain marrow cells. After the cells were rinsed and resuspended to obtain a single cell suspension, the nucleated cell count was determined using a Coulter Counter. Cells from each animal were cultured separately.
The number of colony-forming unit-fibroblast (CFU-F) and CFU-osteoblast (CFU-OB) present in the bone marrow preparations were determined (16-18). Briefly, cells were seeded at 1.5×10^6 per 10 cm^2 well for the determination of CFU-F number and maintained for 10 days in phenol red-free αMEM containing 15% preselected FBS, 50 μM ascorbic acid and 10 mM β-glycerophosphate (Sigma Chemical Co, St. Louis, Mo.) with one-half of the medium replaced after 5 days. After fixation in neutral buffered formalin and staining with hematoxylin, colonies containing a minimum of 20 fibroblastoid cells were enumerated. Cells were seeded at 2.5×10^6 cells per 10 cm^2 well for the determination of CFU-OB number and cultured for 25-28 days as described above for CFU-F. After fixation in 50% ethanol and 18% formaldehyde, cultures were stained using Von Kossa's method to visualize and enumerate colonies containing mineralized bone matrix.
Osteoclast formation in bone marrow cultures was assessed in replicate cultures (4-6 from each animal) maintained for 9 days in the presence of αMEM, 10% FBS and 10 nM 1.25(OH)2D3 (7). Briefly, marrow cells were cultured at 1.5×10^6 per 2 cm^2 well on 13 mm round Thermanox disks and maintained for 8 days in the presence of 10% FBS in αMEM supplemented with 10^−8 M 1.25(OH)2D3 (provided by Dr. Milan Uskokovic, Hoffman-LaRoche, Nutley, N.J.). At the end of the experiment, cells were processed for the autoradiographic detection of bound ^125I-calcitonin (^125I-CT) and stained for tartrate-resistant acid phosphatase. […] Therefore, mononucleated and multinucleated cells that both bind ^125I-CT and express TRAPase were designated as osteoclastic cells. The number of osteoclasts formed in this assay is a reflection of the number of osteoclast progenitors present in the bone marrow aspirate and the number of stromal/osteoblastic support cells that form during the culture period.
The number of CFU-F colonies, CFU-OB colonies, and osteoclastic cells formed from the marrow cells of each animal was expressed as the number per femur, which was calculated by multiplying the number of colonies or osteoclasts obtained per 10^6 cells seeded at the initiation of the cultures by the total number of marrow cells obtained from the animal.

[6] = system: murine osteoblasts and osteocytes; assay: Apoptosis (TUNEL) in undecalcified murine bone sections; format: in vivo, mouse
Description: (§3) Sections were mounted on silane-coated glass slides (Scientific Device Lab, Inc., Des Plains, Ill.), deplasticized and incubated in 10 mM citrate buffer, pH 7.6, in a microwave oven at 98° C. for 5 minutes. Slides were then incubated with 0.5% pepsin for 30 minutes at 37° C. Apoptotic cells were detected by the TUNEL reaction (transferase-mediated biotin-dUTP nick end-labeling) using Klenow terminal deoxynucleotidyl transferase (Oncor, Gaithersburg, Md.) in sections counterstained with 1% methyl green. The TUNEL reaction was noted within cell nuclei and the cells whose nuclei were clearly brown from the peroxidase-labeled anti-digoxigenin antibody instead of the blue-green from the methyl green were interpreted as positive. Plastic-embedded sections of weaned rat mammary tissue were used as a positive control. Negative controls were made by omitting the transferase. Morphological changes characteristic of apoptosis were examined carefully to minimize ambiguity regarding the interpretation of results. With these precautions, TUNEL has been unequivocally associated with apoptosis (19). […] Apoptosis was also assessed in transiliac bone biopsy specimens taken from two patients with glucocorticoid-induced osteoporosis (receiving 15 to 25 mg/d of prednisone for 3 to 6 yr) and from 12 age-, sex- and race-matched controls (13). Two longitudinal sections were examined from each patient and control subject. Osteoblasts were identified as cuboidal cells lining the osteoid-covered trabecular perimeter (7,9,13). Osteocytes were identified inside lacunae in mineralized bone.

[7] = system: murine vertebral cancellous bone; format: in vivo, mouse
Description: as §2
To directly establish whether glucocorticoids initially accelerate bone resorption in the mouse, the vertebral cancellous bone histology were examined in an additional group of somewhat younger mice (5-mo-old) after 7 days administration of the higher dose of prednisolone or placebo (n=5).

[8] = system: human osteoblasts and osteocytes; assay: Apoptosis (TUNEL) in transiliac bone biopsies of patients with glucocorticoid-induced osteoporosis; format: in vivo; conditions: two patients
Description: as §3, with “Two longitudinal sections were examined from each patient and control subject. Osteoblasts were identified as cuboidal cells lining the osteoid-covered trabecular perimeter (7,9,13). Osteocytes were identified inside lacunae in mineralized bone.” left out

human cancellous bone = assay: Bone histomorphometry of transiliac bone biopsies of patients; format: in vivo; conditions: two patients
Description: as §2, §3

[9] = higher dose (2.1 mg/kg/d), 27 days, vs placebo

## C[C@]12C=CC(=O)C=C1CC[C@@H]1[C@@H]2[C@@H](O)C[C@@]2(C)[C@H]1CC[C@]2(O)C(=O)CO [prednisolone]
Male Swiss Webster mice [1]; 0.7 mg/kg/d s.c. slow-release pellet
  Global BMD (% change): −5.0 ± 2.2 % change
Male Swiss Webster mice [1]; 0.7 mg/kg/d
  Hindquarters BMD (% change): −3.8 ± 8.0 % change
  Spinal BMD (% change): −6.8 ± 3.2 % change
Male Swiss Webster mice [1]; 1.4 mg/kg/d, pilot studies
  Effect on bone mineral density: invariably causes densitometric evidence of bone loss
Male Swiss Webster mice [1]; 2.1 mg/kg/d s.c. slow-release pellet
  Global BMD (% change): −6.6 ± 1.9 % change
Male Swiss Webster mice [1]; 2.1 mg/kg/d
  Hindquarters BMD (% change): −3.4 ± 6.9 % change
  Spinal BMD (% change): −8.7 ± 3.5 % change
Male Swiss Webster mice [1]; pellets releasing 0.5 mg/kg/d (the no effect dose)
  Effect on bone mineral density: did not decrease bone mineral density
Male Swiss Webster mice [2]
  Decrease of serum osteocalcin compared to placebo: more than 50%
Male Swiss Webster mice [2]; 0.7 mg/kg/d
  Osteocalcin: 63.0 ± 27.7 µg/L
  Deoxypyridinoline: 63.6 ± 14.7 μM/mM creatinine
Male Swiss Webster mice [2]; 2.1 mg/kg/d
  Osteocalcin: 46.4 ± 13.8 µg/L
  Deoxypyridinoline: 81.5 ± 11.3 μM/mM creatinine
[3]; 0.7 mg/kg/d
  Body Weight: 33.8 ± 4.3 g
  Food Intake: 3.6 ± 0.2 g/day
  Seminal Vesicle Weight: 92.7 ± 8.7 mg/100 g body weight
[3]; 2.1 mg/kg/d
  Body Weight: 32.2 ± 4.2 g
  Food Intake: 3.7 ± 0.4 g/day
  Seminal Vesicle Weight: 83.1 ± 6.9 mg/100 g body weight
[3]; sign of prednisolone toxicity, 27 days
  Hepatic fatty infiltration: absent
[4]; 0.7 mg/kg/d, 27 days
  Bone area/Tissue area: 6.9 ± 2.1%
[4]; 2.1 mg/kg/d, 27 days
  Bone area/Tissue area: 6.3 ± 1.7 %
[4]; 27 days
  Decrease in mineralizing perimeter: 26%
[4]; higher dose (2.1 mg/kg/d), 27 days
  Decline in mineral appositional rate: 40%
[4]; [9]
  Decline in trabecular width: 23%
  Decline in vertebral cancellous bone area: 40%
[4]; higher dose, 27 days
  Decrease in osteoid area: 29%
  Decrease in osteoid perimeter: 34%
  Decrease in osteoid width: 27%
  Decrease in rate of bone formation: 53%
[4]; lower dose (0.7 mg/kg/d), 27 days
  Decline in mineral appositional rate: 22%
[4]; mouse, in vivo
  Active lifespan of an osteoblast: about 260 hours
  Increase in empty erosion cavities or reversal perimeter: 3 fold
  Wall width: about 8 μm
[5]; higher dose (2.1 mg/kg/d), placebo 1250±374, NS
  CFU-F colonies: 698±104 number per femur
[5]; higher dose
  Decrease in number of CFU-OB colonies: 86%
  Decrease in number of osteoclastic cells: 65%
[5]; higher dose, placebo 375±257
  CFU-OB colonies: 54±14 number per femur
[5]; higher dose, placebo 1387±920
  Osteoclastic cells formed in response to 1.25(OH)2D3: 492±311 number per femur
[6]; either dose, mice
  Apoptotic hypertrophic chondrocytes and bone marrow cells: increase
[6]; higher dose, 27 days, vs controls
  Increase in osteoblast apoptosis in vertebrae: 3 fold
[6]; higher dose, 27 days, 131 osteocytes, none in controls
  Apoptotic osteocytes in femoral metaphyseal cortical bone: 28%
[6]; higher dose, 27 days, controls 0.66%±0.07
  Osteoblast apoptosis in vertebral cancellous bone: 2.03%±0.34
[6]; higher dose, estimate with tAp doubled, placebo 0.6
  fAp, fraction of osteoblasts that undergoes apoptosis: 0.9
[6]; higher dose, placebo 0.0066
  Prevalence of osteoblast apoptosis (fraction): 0.0203
[6]; mice, 27 days
  Osteoclast apoptosis: not observed
[7]; higher dose, 7 days
  Decrease in osteoblast perimeter: 59%
  Increase in osteoclast perimeter: 96%
[7]; mouse, in vivo
  Osteoblast perimeter: 2.1±1.1%
  Osteoclast perimeter: 1.00±0.41%

## C[C@]12C=CC(=O)C=C1CC[C@@H]1[C@@H]2C(=O)C[C@@]2(C)[C@H]1CC[C@]2(O)C(=O)CO [prednisone]
[8]
  Apoptosis of osteoclasts or cortical osteocytes: not observed
[8]; 15 to 25 mg/d for 3 to 6 yr, absent in controls
  Apoptotic osteoblasts in cancellous bone: ~30%
Human cancellous bone; one value each, normal is 22.4±1.2 SEM
  Cancellous bone area: 11.1% and 8.8%
Human cancellous bone; normal is 0.9±0.2
  Osteoclast perimeter: 0% and 0.4%
Human cancellous bone; normal is 6.9±0.7
  Reversal perimeter: 13.5% and 15.4%
Human cancellous bone; normal is 7.6±0.4
  Osteoblast perimeter: 2.1% and 2.3%
Human cancellous bone; normal is 161±9
  Trabecular width: 62 μm and 118 μm
